In PubChem BioAssay AID2060900 (Molecular Pharmacology Branch, DTP, NCI, 2025):

System: 521955-158-R2-J5-PDC complex spheroids, viability
Experiment: Anticancer human tumor 521955-158-R2-J5-PDC patient-derived pancreatic carcinoma cell line growth inhibition [RAS]
Settings: for IC50: curve of first compound; for viability, T/C: stronger effect = lower value
Procedure, shortened: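 Multi-cell-type spheroids: tumor cells plus HUVEC endothelial cells and mesenchymal stem cells. RAS-pathway inhibitors were combined with targeted agents, each dosed in half-log steps down from clinical Cmax, or from 10 microM when Cmax was unknown.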
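Note: compound exposure lasted seven days before the viability read.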
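Throughout, for viability, T/C: spheroids also contain HUVEC endothelial cells and mesenchymal stem cells as stroma.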

## CC1(C)CCC(Nc2ncc(C(F)(F)F)c(-c3c[nH]c4c(P(C)(C)=O)c(C#N)ccc34)n2)CN1 (centres undefined) + CCn1c(-c2cccnc2C(C)OC)c2c3cc(ccc31)N1CCOC(CC(NC(=O)C(C(C)C)N(C)C(=O)C3(F)CCN(C(=O)C#CC(C)(C)N(C)C)CC3)C(=O)N3CCCC(N3)C(=O)OCC(C)(C)C2)C1
Second compound 0.000949 µM
  IC50: 7.81 nM
Second compound 0.003 µM
  IC50: 8.8 nM
Second compound 0.00949 µM
  IC50: 8.56 nM
Second compound 0.03 µM
  IC50: 6.8 nM
Second compound 0.0949 µM
  IC50: 7.28 nM
Second compound 0.3 µM
  IC50: 5.8 nM
Second compound 0.000949 µM, first compound 0.000949 µM
  viability, T/C: 88.5%
Second compound 0.000949 µM, first compound 0.003 µM
  viability, T/C: 60.9%
Second compound 0.000949 µM, first compound 0.00949 µM
  viability, T/C: 50.1%
Second compound 0.000949 µM, first compound 0.03 µM
  viability, T/C: 39.2%
Second compound 0.000949 µM, first compound 0.0949 µM
  viability, T/C: 40.7%
Second compound 0.000949 µM, first compound 0.3 µM
  viability, T/C: 43%
Second compound 0.003 µM, first compound 0.000949 µM
  viability, T/C: 106%
Second compound 0.003 µM, first compound 0.003 µM
  viability, T/C: 65.2%
Second compound 0.003 µM, first compound 0.00949 µM
  viability, T/C: 49.9%
Second compound 0.003 µM, first compound 0.03 µM
  viability, T/C: 44%
Second compound 0.003 µM, first compound 0.0949 µM
  viability, T/C: 39.7%
Second compound 0.003 µM, first compound 0.3 µM
  viability, T/C: 45.7%
Second compound 0.00949 µM, first compound 0.000949 µM
  viability, T/C: 83.2%
Second compound 0.00949 µM, first compound 0.003 µM
  viability, T/C: 62.5%
Second compound 0.00949 µM, first compound 0.00949 µM
  viability, T/C: 52%
Second compound 0.00949 µM, first compound 0.03 µM
  viability, T/C: 36.2%
Second compound 0.00949 µM, first compound 0.0949 µM
  viability, T/C: 42.5%
Second compound 0.00949 µM, first compound 0.3 µM
  viability, T/C: 54.1%
Second compound 0.03 µM, first compound 0.000949 µM
  viability, T/C: 90.5%
Second compound 0.03 µM, first compound 0.003 µM
  viability, T/C: 68.7%
Second compound 0.03 µM, first compound 0.00949 µM
  viability, T/C: 40.9%
Second compound 0.03 µM, first compound 0.03 µM
  viability, T/C: 38.4%
Second compound 0.03 µM, first compound 0.0949 µM
  viability, T/C: 41.8%
Second compound 0.03 µM, first compound 0.3 µM
  viability, T/C: 48.4%
Second compound 0.0949 µM, first compound 0.000949 µM
  viability, T/C: 80.8%
Second compound 0.0949 µM, first compound 0.003 µM
  viability, T/C: 66.2%
Second compound 0.0949 µM, first compound 0.00949 µM
  viability, T/C: 45.4%
Second compound 0.0949 µM, first compound 0.03 µM
  viability, T/C: 38.9%
Second compound 0.0949 µM, first compound 0.0949 µM
  viability, T/C: 40%
Second compound 0.0949 µM, first compound 0.3 µM
  viability, T/C: 39%
Second compound 0.3 µM, first compound 0.000949 µM
  viability, T/C: 68.2%
Second compound 0.3 µM, first compound 0.003 µM
  viability, T/C: 65.1%
Second compound 0.3 µM, first compound 0.00949 µM
  viability, T/C: 38.7%
Second compound 0.3 µM, first compound 0.03 µM
  viability, T/C: 34.2%
Second compound 0.3 µM, first compound 0.0949 µM
  viability, T/C: 38.2%
Second compound 0.3 µM, first compound 0.3 µM
  viability, T/C: 40.1%

## CCC(CC)c1cc(NC2CCC(N)C2)n2nccc2n1 (centres undefined) + C=CC(=O)N1CCN(c2nc(OCC3CCCN3C)nc3c(F)c(-c4nc(N)cc(C)c4C(F)(F)F)c(Cl)cc23)C(C)C1
Second compound 0.00316 µM
  IC50: 1950 nM
Second compound 0.01 µM
  IC50: 2100 nM
Second compound 0.0316 µM
  IC50: 2110 nM
Second compound 0.1 µM
  IC50: 2090 nM
Second compound 0.316 µM
  IC50: 2140 nM
Second compound 1 µM
  IC50: 2010 nM
Second compound 0.00316 µM, first compound 0.0316 µM
  viability, T/C: 95.8%
Second compound 0.00316 µM, first compound 0.1 µM
  viability, T/C: 118%
Second compound 0.00316 µM, first compound 0.316 µM
  viability, T/C: 122%
Second compound 0.00316 µM, first compound 1 µM
  viability, T/C: 107%
Second compound 0.00316 µM, first compound 3.16 µM
  viability, T/C: 7.09%
Second compound 0.00316 µM, first compound 10 µM
  viability, T/C: 10.1%
Second compound 0.01 µM, first compound 0.0316 µM
  viability, T/C: 104%
Second compound 0.01 µM, first compound 0.1 µM
  viability, T/C: 127%
Second compound 0.01 µM, first compound 0.316 µM
  viability, T/C: 126%
Second compound 0.01 µM, first compound 1 µM
  viability, T/C: 128%
Second compound 0.01 µM, first compound 3.16 µM
  viability, T/C: 8.44%
Second compound 0.01 µM, first compound 10 µM
  viability, T/C: 12.1%
Second compound 0.0316 µM, first compound 0.0316 µM
  viability, T/C: 99.1%
Second compound 0.0316 µM, first compound 0.1 µM
  viability, T/C: 127%
Second compound 0.0316 µM, first compound 0.316 µM
  viability, T/C: 122%
Second compound 0.0316 µM, first compound 1 µM
  viability, T/C: 152%
Second compound 0.0316 µM, first compound 3.16 µM
  viability, T/C: 9.15%
Second compound 0.0316 µM, first compound 10 µM
  viability, T/C: 9.78%
Second compound 0.1 µM, first compound 0.0316 µM
  viability, T/C: 139%
Second compound 0.1 µM, first compound 0.1 µM
  viability, T/C: 106%
Second compound 0.1 µM, first compound 0.316 µM
  viability, T/C: 142%
Second compound 0.1 µM, first compound 1 µM
  viability, T/C: 120%
Second compound 0.1 µM, first compound 3.16 µM
  viability, T/C: 10.2%
Second compound 0.1 µM, first compound 10 µM
  viability, T/C: 9.75%
Second compound 0.316 µM, first compound 0.0316 µM
  viability, T/C: 145%
Second compound 0.316 µM, first compound 0.1 µM
  viability, T/C: 105%
Second compound 0.316 µM, first compound 0.316 µM
  viability, T/C: 119%
Second compound 0.316 µM, first compound 1 µM
  viability, T/C: 133%
Second compound 0.316 µM, first compound 3.16 µM
  viability, T/C: 11.5%
Second compound 0.316 µM, first compound 10 µM
  viability, T/C: 9.87%
Second compound 1 µM, first compound 0.0316 µM
  viability, T/C: 102%
Second compound 1 µM, first compound 0.1 µM
  viability, T/C: 107%
Second compound 1 µM, first compound 0.316 µM
  viability, T/C: 125%
Second compound 1 µM, first compound 1 µM
  viability, T/C: 110%
Second compound 1 µM, first compound 3.16 µM
  viability, T/C: 10.1%
Second compound 1 µM, first compound 10 µM
  viability, T/C: 13%
